Assay in all cases: ≥ marks a high value that may be exact or a test limit, other limits are often not marked, values filed in µg/mL are converted to µM
Test [1] deals with Staphylococcus aureus ATCC 25923.
Test [2] has as its system Escherichia coli ATCC 25922.
For test [3], the system named is Candida albicans ATCC 2002.
The subject of test [4] is Pseudomonas aeruginosa CMCCB 10104.
The test system of a further test is Acinetobacter baumannii.
Test [5] has as its system Klebsiella pneumoniae ATCC 700603.
For test [6], the system named is Pseudomonas aeruginosa ATCC 9027.
Test [7] relates to Pseudomonas aeruginosa PAO1.
The test system of test [8] is Klebsiella pneumoniae ATCC 13883.
For test [9], the system named is Staphylococcus aureus USA 300.

Structures are written as SMILES. Values after ≈ are worked out from the molar mass of the structure shown.

For `CC(C)C[C@@H]1NC(=O)[C@H](CCCCN)NC(=O)[C@H](CC(=O)O)NC(=O)[C@H](CC(N)=O)NC(=O)[C@H](Cc2ccc(O)cc2)NC(=O)[C@@H](NC(=O)[C@H](CCCCN)NC(=O)[C@@H]2CCCN2C(=O)[C@H](C)NC(=O)[C@H](CCCCN)NC(=O)[C@H](CS)NC(=O)[C@H](CCCCN)NC(=O)[C@H](CC(C)C)NC(=O)[C@H](CCCCN)NC(=O)[C@H](CC(C)C)NC(=O)[C@H](CCCCN)NC(=O)[C@H](CCC(=O)O)NC(=O)[C@@H](N)CCCCN)CSSC[C@@H](C(=O)N[C@H](C(=O)O)[C@@H](C)O)NC(=O)[C@H](C)NC1=O` [KEKLKLKCKAPKCYNDKLACT], the MIC in test [1] is over 82.4 µM; in test [2], over 82.4 µM; in test [3] it was at least 82.4 µM; in test [4], at least 82.4 µM.
As for `CC[C@H](C)[C@H](NC(=O)[C@@H](NC(=O)[C@H](CC(=O)O)NC(=O)[C@H](CC(C)C)NC(=O)[C@H](CC(C)C)NC(=O)CN)[C@@H](C)O)C(=O)N[C@@H](CCCCN)C(=O)N[C@@H](CC(N)=O)C(=O)N[C@@H](CCSC)C(=O)N[C@@H](C)C(=O)N[C@@H](CC(C)C)C(=O)N[C@@H](CC(N)=O)C(=O)N[C@@H](C)C(=O)N[C@@H](C)C(=O)N[C@@H](CCCCN)C(=O)N[C@@H](CO)C(=O)N[C@@H](C)C(=O)NCC(=O)N[C@H](C(=O)N[C@@H](CO)C(=O)N[C@H](C(=O)N[C@@H](CC(C)C)C(=O)N[C@@H](CC(N)=O)C(=O)N[C@@H](CO)C(=O)N[C@@H](CC(C)C)C(=O)N[C@@H](CO)C(=O)N[C@H]1CSSC[C@@H](C(=O)O)NC(=O)[C@H]([C@@H](C)O)NC(=O)[C@H](CCCCN)NC(=O)[C@H](CO)NC(=O)[C@H](CC(C)C)NC(=O)[C@H](CCCCN)NC1=O)C(C)C)C(C)C` [GLLDTIKNMALNAAKSAGVSVLNSLSCKLSKTC], the MIC in test [1] was 3.61 µM (≈ 12.1 µg/mL); in [2], 3.61 µM (≈ 12.1 µg/mL); in test [3], 3.61 µM (≈ 12.1 µg/mL); in test [4] it was 1.79 µM (≈ 6 µg/mL).
With `CC[C@H](C)[C@H](N)C(=O)N[C@@H](CC(C)C)C(=O)N1CCC[C@H]1C(=O)N[C@@H](Cc1ccccc1)C(=O)N[C@H](C(=O)N[C@@H](C)C(=O)NCC(=O)N[C@H](C(=O)N[C@@H](C)C(=O)N[C@@H](C)C(=O)N[C@@H](CCC(=O)O)C(=O)N[C@@H](CCSC)C(=O)N[C@@H](CCSC)C(=O)N[C@@H](CCCCN)C(=O)N[C@@H](Cc1cnc[nH]1)C(=O)N[C@H](C(=O)N[C@@H](Cc1ccc(O)cc1)C(=O)N[C@H]1CSSC[C@@H](C(=O)O)NC(=O)[C@H](CCCCN)NC(=O)[C@H](CCCCN)NC(=O)[C@H](CO)NC(=O)[C@H](C)NC(=O)[C@H](C)NC1=O)C(C)C)C(C)C)C(C)C` [ILPFVAGVAAEMMKHVYCAASKKC], the MIC turned out to be 5.92 µM (≈ 15.2 µg/mL) in [1], 5.92 µM (≈ 15.2 µg/mL) in test [2], 2.96 µM (≈ 7.59 µg/mL) in [3] and 11.8 µM (≈ 30.4 µg/mL) in test [4].
On to `CC(C)[C@H](N)C(=O)N[C@H](C(=O)N[C@@H](CCCCN)C(=O)N[C@@H](Cc1ccccc1)C(=O)N[C@@H](CO)C(=O)N[C@@H](Cc1ccc(O)cc1)C(=O)N[C@@H](CCCN=C(N)N)C(=O)N[C@@H](CCCCN)C(=O)NCC(=O)N[C@@H](CO)C(=O)N1CCC[C@H]1C(=O)N[C@@H](C)C(=O)N1CCC[C@H]1C(=O)N[C@@H](CCC(N)=O)C(=O)N[C@@H](CCCCN)C(=O)N[C@@H](CC(N)=O)C(=O)O)C(C)C` [VVKFSYRKGSPAPQKN], for which the MIC is over 111 µM in [1], over 111 µM in [2], at least 111 µM in test [3] and at least 111 µM in test [4].
On to `CC[C@H](C)[C@H](NC(=O)CN)C(=O)N[C@@H](CC(C)C)C(=O)N[C@@H](CC(=O)O)C(=O)N[C@H](C(=O)N[C@@H](Cc1ccccc1)C(=O)N[C@@H](CCCCN)C(=O)N[C@@H](CC(N)=O)C(=O)N[C@@H](CCSC)C(=O)N[C@@H](C)C(=O)N[C@@H](CC(C)C)C(=O)N[C@@H](CC(N)=O)C(=O)N[C@@H](C)C(=O)N[C@@H](C)C(=O)N[C@@H](CCCCN)C(=O)N[C@@H](CO)C(=O)N[C@@H](C)C(=O)NCC(=O)N[C@H](C(=O)N[C@@H](CO)C(=O)N[C@H](C(=O)N[C@@H](CC(C)C)C(=O)N[C@@H](CC(N)=O)C(=O)N[C@@H](C)C(=O)N[C@@H](CC(C)C)C(=O)N[C@@H](CO)C(=O)N[C@H]1CSSC[C@@H](C(=O)O)NC(=O)[C@H]([C@@H](C)O)NC(=O)[C@H](CCCCN)NC(=O)[C@H](CO)NC(=O)[C@H](CC(C)C)NC(=O)[C@H](CCCCN)NC1=O)C(C)C)C(C)C)[C@@H](C)O` [GILDTFKNMALNAAKSAGVSVLNALSCKLSKTC], for which the MIC in test [1] turned out to be 3.59 µM (≈ 12.1 µg/mL); in test [2] it was 3.59 µM (≈ 12.1 µg/mL); in test [3] it was 1.78 µM (≈ 6 µg/mL); in test [4] it was 3.59 µM (≈ 12.1 µg/mL).
Consider `CC[C@H](C)[C@H](N)C(=O)N1CCC[C@H]1C(=O)N[C@@H](CC(C)C)C(=O)N[C@@H](CC(C)C)C(=O)N[C@@H](CCCN=C(N)N)C(=O)N[C@@H](CCCCN)C(=O)NCC(=O)N[C@@H](CCCCN)C(=O)N[C@@H](CCCCN)C(=O)N[C@H](C(=O)N[C@H](C(=O)N[C@@H](Cc1c[nH]c2ccccc12)C(=O)N[C@@H](Cc1c[nH]c2ccccc12)C(=O)O)[C@@H](C)CC)[C@@H](C)CC` [IPLLRKGKKIIWW], for which the MIC in test [1] was over 64 µM; in test [2] it was over 64 µM; in the test on Acinetobacter baumannii it was at least 64 µM; in test [5], over 64 µM; in test [6], 64 µM (≈ 106 µg/mL).
With `CC[C@H](C)[C@H](N)C(=O)N[C@H](C(=O)N1CCC[C@H]1C(=O)N[C@@H](Cc1ccccc1)C(=O)N[C@H](C(=O)N[C@@H](C)C(=O)NCC(=O)N[C@H](C(=O)N[C@@H](C)C(=O)N[C@@H](C)C(=O)N[C@@H](CCC(=O)O)C(=O)N[C@@H](CCSC)C(=O)N[C@@H](CCSC)C(=O)N[C@@H](CCC(=O)O)C(=O)N[C@@H](Cc1cnc[nH]1)C(=O)N[C@H](C(=O)N[C@@H](Cc1ccc(O)cc1)C(=O)N[C@H]1CSSC[C@@H](C(=O)O)NC(=O)[C@H](CCCCN)NC(=O)[C@H](CCCCN)NC(=O)[C@H](CO)NC(=O)[C@H](C)NC(=O)[C@H](C)NC1=O)C(C)C)C(C)C)C(C)C)[C@@H](C)CC` [IIPFVAGVAAEMMEHVYCAASKKC], the MIC in test [1] turned out to be 8.64 µM (≈ 22.2 µg/mL); in test [2], 4.32 µM (≈ 11.1 µg/mL); in test [3], 4.32 µM (≈ 11.1 µg/mL); in [4], 8.64 µM (≈ 22.2 µg/mL).
As to `CC[C@H](C)[C@H](N)C(=O)N[C@@H](CC(=O)O)C(=O)N1CCC[C@H]1C(=O)N[C@@H](Cc1ccccc1)C(=O)N[C@H](C(=O)N[C@@H](C)C(=O)NCC(=O)N[C@H](C(=O)N[C@@H](C)C(=O)N[C@@H](C)C(=O)N[C@@H](CCC(=O)O)C(=O)N[C@@H](CCSC)C(=O)N[C@@H](CCSC)C(=O)N[C@@H](CCC(N)=O)C(=O)N[C@@H](Cc1cnc[nH]1)C(=O)N[C@H](C(=O)N[C@@H](Cc1ccc(O)cc1)C(=O)N[C@H]1CSSC[C@@H](C(=O)O)NC(=O)[C@H](CCCCN)NC(=O)[C@H](CCCCN)NC(=O)[C@H](CO)NC(=O)[C@H](C)NC(=O)[C@H](C)NC1=O)C(C)C)C(C)C)C(C)C` [IDPFVAGVAAEMMQHVYCAASKKC], the MIC in test [1] was determined as 7.08 µM (≈ 18.2 µg/mL); in test [2] it was 3.54 µM (≈ 9.09 µg/mL); in [3], 7.08 µM (≈ 18.2 µg/mL); in [4], 7.08 µM (≈ 18.2 µg/mL).
As for `CC[C@H](C)[C@H](NC(=O)[C@H](Cc1ccccc1)NC(=O)[C@H](CO)NC(=O)[C@H](CCCCN)NC(=O)[C@H](CC(C)C)NC(=O)[C@H](CCCCN)NC(=O)[C@H](CCCCN)NC(=O)[C@H](CC(C)C)NC(=O)[C@@H](NC(=O)[C@@H](NC(=O)[C@@H](N)Cc1ccccc1)[C@@H](C)O)[C@@H](C)CC)C(=O)N[C@@H](CCCCN)C(=O)O` [FTILKKLKSFIK], the MIC in test [1] is over 64 µM; in test [2], over 64 µM; with Acinetobacter baumannii it was at least 64 µM; in test [5] it was over 64 µM; in [6], 32 µM (≈ 46.9 µg/mL).
Consider `CC[C@H](C)[C@H](NC(=O)[C@H](CCCCN)NC(=O)[C@H](CCC(N)=O)NC(=O)[C@@H](NC(=O)[C@@H](NC(=O)[C@H](CCCCN)NC(=O)[C@H](CCCN=C(N)N)NC(=O)[C@H](Cc1ccccc1)NC(=O)CN)[C@@H](C)CC)C(C)C)C(=O)N[C@@H](CCCN=C(N)N)C(=O)N[C@@H](CC(=O)O)C(=O)N[C@@H](Cc1ccccc1)C(=O)N[C@@H](CC(C)C)C(=O)N[C@@H](CCCN=C(N)N)C(=O)N[C@@H](CC(N)=O)C(=O)N[C@@H](CC(C)C)C(=O)N[C@H](C(N)=O)C(C)C` [GFRKIVQKIRDFLRNLV], for which the MIC in test [7] is over 50 µM; in test [8], 3.1 µM (≈ 6.51 µg/mL); in test [2], 4.4 µM (≈ 9.25 µg/mL); in [9], 3.1 µM (≈ 6.51 µg/mL).
For the compound `CC(C)C[C@H](NC(=O)[C@H](C)NC(=O)[C@H](CCCCN)NC(=O)CNC(=O)[C@H](CC(C)C)NC(=O)[C@H](CC(C)C)NC(=O)[C@H](CO)NC(=O)[C@H](CC(C)C)NC(=O)[C@H](CC(C)C)NC(=O)[C@H](CO)NC(=O)[C@H](CC(C)C)NC(=O)[C@H](CC(C)C)NC(=O)CN)C(N)=O` [GLLSLLSLLGKAL], the MIC in [7] was over 25 µM; in [8] it was 3.1 µM (≈ 4.02 µg/mL); in test [2], 3.1 µM (≈ 4.02 µg/mL); in [9], 0.78 µM (≈ 1.01 µg/mL).

Broadly, the MIC is the lowest concentration that inhibits growth of the organism. Higher therefore signals a need for much substance.

The values are drawn from DBAASP.
